US20250275958A1, “GPCR REGULATOR AND USE THEREOF” (BEIJING CHANGPING LABORATORY, priority 2022, published 2025)
Like-named read-outs stand apart in the source and are kept apart here.

Columns and labels:
[1] = system: TNF-α; assay: Determination of level of tumor necrosis factor (TNF-α) as cell inflammatory marker, ELISA, LPS-treated HepG2 cells; assay type: cell-based; conditions: Homo sapiens, 48 h of drug administration, read-out: EC50 (activity in reducing TNF-α)
Procedure: HepG2 cells were inoculated in 96-well plates at a density of 30%. After incubation for 18 h to allow the cells to adhere to wall, the original culture medium was removed, and each well of the drug group was added with LPS culture medium (LPS concentration was […]), the control group was added with an equal amount of DMSO, and incubation was performed overnight. […] Three replicate wells were set for each compound. After 48 h of drug administration, the cell supernatant was collected with a sterile tube, and centrifuged for about 20 minutes (2000 to 3000 rpm). The supernatant was carefully collected. The TNF-α level was then determined using ELISA method. The specific steps were as follows: • Standard sample addition: Standard sample wells and sample wells were set, and 50 μL of standard sample at different concentrations was added to each standard sample well. • Sample addition: Blank wells (blank control wells was not added with sample and ELISA reagent, and the rest operations were the same) and test sample wells were set. First, 40 μL of sample diluent was added to each test sample well on an ELISA plate, and then 10 μL of the sample to be tested (the final dilution ratio of sample was 5) was added. The sample was added to the bottom of the well of the ELISA plate, not touching the well wall as much as possible, and then the gentle shaking was carried out for mixing. • Enzyme addition: 100 μL of ELISA reagent was added to each well, except for the blank wells. • Incubation: The plate was sealed with a sealing film and incubated at 37° C. for 60 minutes. • Solution preparation: 20-Fold concentrated washing solution was diluted by 20-fold with distilled water for later use. • Washing: The sealing film was carefully peeled off, the liquid was discarded, the plate was spin-dried; each well was filled with the washing solution, allowed to stand for 30 seconds and then the washing solution was discarded. This operation was repeated 5 times, and pat-drying was performed. • Color development: First, 50 μL of color developer A was added to each well, then 50 μL of color developer B was added, gently shaken and mixed, and color development was performed at 37° C. in the dark for 15 minutes. • Termination: 50 μL of termination liquid was added to each well to stop the reaction (the blue color immediately turned yellow). • Determination: Zero was set with the blank well, and the absorbance (OD value) at 450 nm of each well was measured in sequence. The determination should be performed within 15 minutes after adding the termination liquid.
TNF-α content in the sample to be tested could be calculated by drawing a standard curve based on the standard samples. TNF-α reduction rate was further calculated. The formula for calculating TNF-α reduction was Reduction rate (%)=TNF-α contentcontrol−TNF-α contentto be tested/TNF-α contentcontrol×100.
In the above experiment, the compounds with higher TNF-α reduction rate and lower EC50 value could better reduce the level of inflammation.

[2] = target: T1, GPR132 (Homo sapiens, UniProt Q9UNW8); assay: G protein activation (Gi BRET probes, GPR132 co-transfected in HEK293 cells); assay type: cell-based; conditions: stimulated 2 minutes, read-out: GPR132 EC50 (GPR132 agonist activity)
T1 construct: expressed in transfected cells; host or cells: HEK293 cells (transient co-transfection)
T1 sequence (Q9UNW8 1-380): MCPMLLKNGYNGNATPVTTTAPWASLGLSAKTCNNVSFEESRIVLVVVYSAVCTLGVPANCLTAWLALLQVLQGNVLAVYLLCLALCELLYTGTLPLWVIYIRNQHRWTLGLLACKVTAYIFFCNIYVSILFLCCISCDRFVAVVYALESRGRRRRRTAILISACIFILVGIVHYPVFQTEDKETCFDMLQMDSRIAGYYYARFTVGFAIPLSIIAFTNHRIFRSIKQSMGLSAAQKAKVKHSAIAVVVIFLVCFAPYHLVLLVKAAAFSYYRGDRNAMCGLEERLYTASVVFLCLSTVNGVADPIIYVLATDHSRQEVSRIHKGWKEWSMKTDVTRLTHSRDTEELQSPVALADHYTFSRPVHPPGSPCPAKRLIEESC
Procedure: Gi BRET probes were generated according to previous literature (Olsen et al., 2020), and included Gαi-RLuc8, Gβ3, and Gγ9-GFP2. GPR132 and Gi BRET probes were transiently co-transfected in HEK293 cells. 24 hours after transfection, the cells were distributed into 96-well microplates at a density of 5×10^4 cells per well and cultured for another 24 hours. The cells were washed twice with Tyrode buffer and stimulated with compound ligands at different concentrations (10^−12 to 10^−5 M) for 2 minutes. After adding coelenterazine, the substrate of luciferase, 400a (5 μM), BRET signal was measured using a Mithras LB940 microplate reader equipped with a BRET filter set. The BRET signal was calculated as the emission light ratio at 510 nm/400 nm.
The compounds with lower EC50 values in the above experiments had good GPR132 agonist activity.

## Cc1c(C(=O)O)oc2ccc(NC(=O)CCCCc3ccccc3)cc12 [Example 21, 3-METHYL-5-(5-PHENYLVALERAMIDO)BENZOFURAN-2-CARBOXYLIC ACID]
[1]; class symbols
  EC50: 0.01 to 10 µM
[2]; class symbols
  EC50: 1000 to 10000 nM

## Cc1c(C(=O)O)oc2ccc(S(=O)(=O)N(CCc3ccccc3)Cc3ccc(C(=O)OC(C)(C)C)cc3)cc12 [Example 25, 3-METHYL-5-(N-(4-(TERT-BUTYLOXYCARBONYL)BENZYL)-N-PHENYLETHYLSULFAMOYL) BENZOFURAN-2-CARBOXYLIC ACID]
[1]; class symbols
  EC50: 0.01 to 10 µM
[2]; class symbols
  EC50: 10 to 1000 nM

## Cc1c(C(=O)O)oc2ccc(S(=O)(=O)N(CCc3ccccc3)Cc3ccc(Br)cc3)cc12 [Example 24, 3-METHYL-5-(N-(4-BROMOBENZYL)-N-PHENYLETHYLSULFAMOYL)BENZOFURAN-2-CARBOXYLIC ACID]
[1]
  EC50: 0.7 µM
[2]
  EC50: 300 nM

## Cc1c(C(=O)O)oc2ccc(S(=O)(=O)N(CCc3ccccc3)c3ccc(Oc4ccccc4)cc3)cc12 [Example 30, 3-METHYL-5-(N-(4-PHENOXYPHENYL)-N-PHENYLETHYLSULFAMOYL)BENZOFURAN-2-CARBOXYLIC ACID]
[1]; class symbols
  EC50: 10 to 50 µM
[2]; class symbols
  EC50: 10 to 1000 nM

## Cc1c(C(=O)O)oc2ccc(NC(=O)CCC(=O)c3ccccc3)cc12 [Example 20]
[1]; class symbols
  EC50: 0.01 to 10 µM
[2]; class symbols
  EC50: 10 to 1000 nM

## Cc1c(C(=O)O)oc2ccc(S(=O)(=O)N(CCc3ccccc3)CCc3ccccc3)cc12 [Example 28, 3-Methyl-5-(N,N-diphenylethylsulfamoyl)benzofuran-2-carboxylic acid]
[1]
  EC50: 3.1 µM
[2]
  EC50: 2100 nM

## Cc1c(C(=O)O)oc2ccc(S(=O)(=O)N(CCc3ccccc3)c3ccccc3)cc12 [Example 27, 3-METHYL-5-(N-PHENETHYL-N-PHENYLSULFAMOYL)BENZOFURAN-2-CARBOXYLIC ACID]
[1]; class symbols
  EC50: 10 to 50 µM
[2]; class symbols
  EC50: 1000 to 10000 nM

## Cc1c(C(=O)O)oc2ccc(S(=O)(=O)N(CCc3ccccc3)Cc3ccccc3)cc12 [Example 23, 3-METHYL-5-(N-BENZYL-N-PHENYLETHYLSULFAMOYL)BENZOFURAN-2-CARBOXYLIC ACID]
[1]
  EC50: 5.9 µM
[2]
  EC50: 3800 nM

## Cc1c(C(=O)O)oc2ccc(NC(=O)/C=C/c3ccccc3)cc12 [Example 17]
[1]; class symbols
  EC50: 0.01 to 10 µM
[2]; class symbols
  EC50: 10 to 1000 nM

## Cc1c(C(=O)O)oc2ccc(NC(=O)CCc3ccccc3)cc12 [Example 16]
[1]
  EC50: 10.2 µM
[2]
  EC50: 6500 nM

## Cc1c(C(=O)O)oc2ccc(S(=O)(=O)N(CCc3ccccc3)c3ccc(N4CCN(S(C)(=O)=O)CC4)cc3)cc12 [Example 29, 3-METHYL-5-(N-(4-(4-(METHYLSULFONYL)PIPERAZIN-1-YL)PHENYL)-N-PHENYLETHYLSULFAMOYL)BENZOFURAN-2-CARBOXYLIC ACID]
[1]; class symbols
  EC50: 10 to 50 µM
[2]; class symbols
  EC50: 1000 to 10000 nM

## Cc1c(C(=O)O)oc2ccc(NC(=O)/C=C/c3cccc(I)c3)cc12 [Example 18, (E)-5-(3-(3-IODOPHENYL)ACRYLAMIDO)-3-METHYLBENZOFURAN-2-CARBOXYLIC ACID]
[1]
  EC50: 1 µM
[2]
  EC50: 510 nM

## Cc1c(C(=O)O)oc2ccc(S(=O)(=O)N(CCc3ccccc3)Cc3cccc4cccnc34)cc12 [Example 26, 3-METHYL-5-(N-(QUINOLIN-8-YLMETHYL)-N-PHENYLETHYLSULFAMOYL)BENZOFURAN-2-CARBOXYLIC ACID]
[1]; class symbols
  EC50: 10 to 50 µM
[2]; class symbols
  EC50: 1000 to 10000 nM

## Cc1c(C(=O)O)oc2ccc(NC(=O)[C@H]3C[C@H]3c3ccccc3)cc12 [Example 19, 3-METHYL-5-((1S,2R)-2-PHENYLCYCLOPROPANE-1-CARBOXAMIDO) BENZOFURAN-2-CARBOXYLIC ACID]
[1]; class symbols
  EC50: 10 to 50 µM
[2]; class symbols
  EC50: 1000 to 10000 nM

## Cc1c(C(=O)O)oc2ccc(OCCCc3ccccc3)cc12 [Example 22, 3-METHYL-5-(3-PHENYLPROPOXY)BENZOFURAN-2-CARBOXYLIC ACID]
[1]; class symbols
  EC50: 0.01 to 10 µM
[2]; class symbols
  EC50: 10 to 1000 nM
